Test results reported in patent US20220211692A1, “Modulators of the Cystic Fibrosis Transmembrane Conductance Regulator Protein and Methods of Use” (AbbVie Global Enterprises Ltd., priority 2021, published 2022).
Where two headings read alike, the source gives them in different places.

How the values were obtained:
F508del/F508del CFTR = biological target: T1, F508del/F508del CFTR (Homo sapiens, UniProt P13569, DEL508-508); assay: Trans-Epithelial Current Clamp (TECC) assay using primary human bronchial epithelial cells; assay type: cell-based; details: for Emax (% Dual): maximum percent activity relative to positive control (co-corrector 0.15 μM + potentiator 0.45 μM = 100%); for EC50: primary hBE cells F508del/F508del, test corrector with co-corrector and potentiator, 18-24 hours, equivalent CFTR current
T1 construct: cells isolated from CF patients with the homozygous mutation; endogenous in cells; host or cells: primary human bronchial epithelial (hBE) cells from CF patients homozygous for F508del
From the text: A cell-based assay was developed using the primary human bronchial epithelial cells (hBE cells) with F508del/F508del CFTR and other mutations.
Primary human bronchial epithelial (hBE) cells from CFTR patients with homozygous F508del/F508del mutation were expanded from 1×10^6 to 250×10^6 cells (Neuberger, T et al., 2011, Methods Mol Biol 741:39-54). For this purpose, cells isolated from CF patients with the homozygous mutation, procured from the CF center tissue procurement and cell culture core at the Marsico Lung Institute at UNC (Randell), the Cystic Fibrosis translational research center at McGill University (University), and Rosalind Franklin University Medical School (RFUMS) were seeded onto 24 well Corning (Cat #3378) filter plates that were coated with 3T3 conditioned media and grown at an air-liquid interface for 35 days using an Ultroser® G supplemented differentiation media. All the primary human bronchial epithelial cells were collected in accordance with institutional review board approval protocols. Apical surface mucus was removed 72 hours before the experiment by incubating the apical surface of the cells for 30 minutes with 3 mM dithiothreitol (DTT) prepared in Dulbecco's phosphate buffered saline (DPBS) with Ca^2+ and Mg^2+. This was followed with aspiration of the mucus from the apical surface along with DPBS. The apical surface was re-washed with phosphate buffered saline (PBS) incubated for 30 minutes followed with aspiration. These hBE cells were then incubated with the desired concentrations of the test C2 corrector compounds along with co-corrector, 4-[(2R,4R)-4-({[1-(2,2-difluoro-1,3-benzodioxol-5-yl)cyclopropyl]carbonyl}amino)-7-(difluoromethoxy)-3,4-dihydro-2H-chromen-2-yl]benzoic acid and potentiator, (5-{3-amino-5-[4-(trifluoromethoxy)benzene-1-sulfonyl]pyridin-2-yl}-1,3,4-oxadiazol-2-yl)methanol, for 18-24 hours at 37° C., 5% CO2. The desired concentrations of the correctors and potentiator compounds were prepared from the 10 mM stocks in differentiation media and were always applied on the basolateral side of the epithelial cells. We also used an assay format where a fixed concentration of potentiator was added chronically along with the corrector compounds. This chronic treatment with the potentiator helped eliminate any interaction that might happen with CFTR modulators (correctors and potentiators) and thereby determined the true efficacy of the modulator combinations reflective of clinical relevance.
The assay uses a Transepithelial Current Clamp (TECC) (Vu, C B et al., 2017; J Med Chem 60:458-473) instrument that can measure the functionality of the mutated channel by measuring the equivalent CFTR current (IEQ) generated by the polarized primary epithelial cells. We used a TECC-24 with a 24-channel electrode manifold allowing for the simultaneous measurement of the transepithelial voltage, VT, and transepithelial resistance, RT, under current clamp conditions, from 24 filters using a 24 well Costar filter plate. The design of the filters in the 24 well filter plates was exactly the same as the design of an individual Transwell filter used in the classical Ussing Chamber with a surface area of 0.33 cm^2. Each measured VT values were corrected for the electrode offset potential measured using buffer alone in a separate plate, and each measured RT values were then corrected for the combined solution series and empty filter resistances. The corrected VT and RT values were then used to calculate the equivalent current, IEQ using Ohm's law (IEQ=VT/RT). The area under the curve (AUC) for the time period between the forskolin peak IEQ response and at the time of bumetanide addition was also calculated using a one-third trapezoid method, in addition to calculating the IEQ. The assay was run in a 24-well format and all 24-wells were measured at the same time point giving a higher throughput for this assay. […]

F508delCFTR = biological target: T2, F508delCFTR (Homo sapiens, UniProt P13569, DEL508-508); assay: Cell Surface Expression-Horse Radish Peroxidase (CSE-HRP) assay in CFBE41o-F508delCFTR-HRP cells; assay type: cell-based; details: for EC50: CFBE41o-F508delCFTR-HRP cells, 18-24 hours at 33° C.; for Emax / Maximum % activity (with co-corrector): normalized to on-plate positive control; for Emax: read-out: Maximum % activity (without co-corrector)
T2 construct: expressed in transfected cells; host or cells: CFBE41o- human lung derived epithelial cell line, doxycycline-induced expression
Method: A cellular assay for measuring the F508delCFTR cell surface expression after correction with test compounds either without or with a co-corrector (2 μM of 3-[(2R,4R)-4-({[1-(2,2-difluoro-1,3-benzodioxol-5-yl)cyclopropyl]carbonyl}amino)-7-methoxy-3,4-dihydro-2H-chromen-2-yl]benzoic acid), was developed in human lung derived epithelial cell line (CFBE41o-) (Veit G et al, (2012) Mol Biol Cell. 23(21): 4188-4202). The development was achieved by expressing the F508delCFTR mutation along with a horseradish peroxidase (HRP) in the fourth exofacial loop, and then measuring the HRP activity using luminescence readout from these cells, CFBE41o-F508delCFTR-HIRP, that were incubated overnight with the test corrector compounds, either without or with the co-corrector. For this primary assay, the CFBE41o-F508delCFTR-HRP cells were plated in 384-well plates (Greiner Bio-one; Cat 781080) at 4,000 cells/well along with 0.5 μg/mL doxycycline to induce the F508delCFTR-HRP expression and further incubated at 37° C., […] for 68-72 hours. The test compounds were then added either without or with a co-corrector at the required concentrations and further incubated for 18-24 hours at 33° C. The highest concentration tested was 20 μM or 30 μM (GI-1 to GIII-36) with an 8-point concentration response curve using a 3-fold dilution in both the test compound without or with the co-corrector. Three replicate plates were run to determine one EC50. All plates contained negative controls (dimethyl sulfoxide, DMSO) and positive control (2 μM or 3 μM (GI-1 to GIII-36) of 3-[(2R,4R)-4-({[1-(2,2-difluoro-1,3-benzodioxol-5-yl)cyclopropyl]carbonyl}amino)-7-methoxy-3,4-dihydro-2H-chromen-2-yl]benzoic acid) as well as on-plate concentration response of the positive control. Post incubation, the plates were washed 5× times with Dulbecco's phosphate buffered saline (DPBS), followed by the addition of the HRP substrate, luminol (50 μL), and measuring the HRP activity using luminescence readout on EnVision® Multilabel Plate Reader (Perkin Elmer; product number 2104-0010). The raw counts from the experiment were analyzed using Accelrys® Assay Explorer v3.3.
Z′ greater than 0.5 was used as passing quality control criteria for the plates. The Z′ is defined as:
1−[3*SDPositive Control+3*SDNegative Control/Absolute(MeanPositive Control−MeanNegative Control)]
The % activity measured at each of the 8 test concentrations of the test compound added either without or with a co-corrector (2 μM or 3 μM (GI-1 to GIII-36) of 3-[(2R,4R)-4-({[1-(2,2-difluoro-1,3-benzodioxol-5-yl)cyclopropyl]carbonyl}amino)-7-methoxy-3,4-dihydro-2H-chromen-2-yl]benzoic acid) was normalized to the on-plate positive control using the following formulae:
% activity (Test compound without co-corrector)=[(test compound without co-corrector response−DMSO response)/(positive control response−DMSO response)]*100
% activity (Test compound with co-corrector)=[(test compound with co-corrector response−DMSO response)/(positive control response−DMSO response)]*100
The maximum % activity achieved for the test compound either without or with a co-corrector at any tested concentration is presented in Table 3 along with the respective EC50's calculated using the following general sigmoidal curve with variable Hill slope equation (described as Model 42 in the Accelrys® Assay Explorer v3.3 software):
General sigmoidal curve with concentration, response, top, bottom, EC50 and Hill slope. This model describes a sigmoidal curve with an adjustable baseline, a. The equation can be used to fit curves where response is either increasing or decreasing with respect to the independent variable, “x”.

[1] = with co-corrector 2 μM, read-out: EC50 (with co-corrector)
[2] = without co-corrector, read-out: EC50 (without co-corrector)

T1 sequence (P13569 with tags, fused parts or gaps DEL508-508): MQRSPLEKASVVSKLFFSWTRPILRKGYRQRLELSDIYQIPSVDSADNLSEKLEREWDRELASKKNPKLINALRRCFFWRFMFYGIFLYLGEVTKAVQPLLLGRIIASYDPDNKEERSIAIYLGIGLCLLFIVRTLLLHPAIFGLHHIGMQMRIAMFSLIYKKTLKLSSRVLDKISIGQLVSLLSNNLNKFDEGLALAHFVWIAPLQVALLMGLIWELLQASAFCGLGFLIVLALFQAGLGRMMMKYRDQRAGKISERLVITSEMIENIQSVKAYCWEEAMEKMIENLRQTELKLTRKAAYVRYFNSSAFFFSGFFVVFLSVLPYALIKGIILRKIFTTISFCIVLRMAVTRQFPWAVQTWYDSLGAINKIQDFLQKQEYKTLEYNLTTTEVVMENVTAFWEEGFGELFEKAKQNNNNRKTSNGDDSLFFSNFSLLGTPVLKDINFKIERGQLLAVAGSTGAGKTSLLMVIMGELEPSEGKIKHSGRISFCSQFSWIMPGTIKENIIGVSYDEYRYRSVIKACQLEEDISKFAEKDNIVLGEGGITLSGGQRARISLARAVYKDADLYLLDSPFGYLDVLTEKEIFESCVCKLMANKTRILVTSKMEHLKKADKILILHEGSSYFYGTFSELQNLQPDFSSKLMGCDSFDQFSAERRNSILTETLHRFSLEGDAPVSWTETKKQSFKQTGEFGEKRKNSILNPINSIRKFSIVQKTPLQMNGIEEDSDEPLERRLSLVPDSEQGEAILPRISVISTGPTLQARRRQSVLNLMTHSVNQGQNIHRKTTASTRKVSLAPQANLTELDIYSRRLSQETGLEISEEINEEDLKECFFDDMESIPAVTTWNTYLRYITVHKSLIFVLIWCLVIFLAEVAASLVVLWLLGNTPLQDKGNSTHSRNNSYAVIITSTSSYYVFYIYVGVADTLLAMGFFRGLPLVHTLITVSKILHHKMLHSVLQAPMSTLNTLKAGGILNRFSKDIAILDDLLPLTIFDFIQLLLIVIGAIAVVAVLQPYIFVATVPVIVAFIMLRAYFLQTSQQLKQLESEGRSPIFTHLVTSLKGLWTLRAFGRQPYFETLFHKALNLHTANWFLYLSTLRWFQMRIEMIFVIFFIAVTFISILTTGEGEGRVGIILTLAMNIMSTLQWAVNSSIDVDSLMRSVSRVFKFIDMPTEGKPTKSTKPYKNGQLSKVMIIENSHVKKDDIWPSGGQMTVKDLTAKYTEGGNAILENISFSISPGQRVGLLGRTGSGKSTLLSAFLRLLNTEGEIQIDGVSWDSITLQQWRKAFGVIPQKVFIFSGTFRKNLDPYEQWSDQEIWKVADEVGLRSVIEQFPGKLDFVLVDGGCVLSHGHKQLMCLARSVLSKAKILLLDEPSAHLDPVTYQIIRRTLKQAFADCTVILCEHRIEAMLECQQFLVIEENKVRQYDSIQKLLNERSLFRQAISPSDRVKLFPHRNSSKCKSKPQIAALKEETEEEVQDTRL
T2 sequence (P13569 with tags, fused parts or gaps DEL508-508): as above

Row | SMILES | Emax (% Dual) (F508del/F508del CFTR) | EC50 (F508del/F508del CFTR) | EC50 (F508delCFTR; [1]) | EC50 (F508delCFTR; [2]) | Emax (F508delCFTR; without co-corrector) | Maximum % activity (with co-corrector) (F508delCFTR; with co-corrector 2 μM)
1 | CCOc1ccc(CC)cc1[C@@]1(C(=O)NS(=O)(=O)c2cccc3nc(C)ccc23)CCCO1 [Example 9, (2R)-2-(2-ethoxy-5-ethylphenyl)-N-(2-methylquinoline-5-sulfonyl)oxolane-2-carboxamide] | 256 % Dual | 33.7 nM | 840 nM | 1650 nM | 865% | 
2 | CCOc1ccc(CC)cc1[C@]1(C(=O)NS(=O)(=O)c2cccc3nc(C)ccc23)CCCO1 [Example 10, (2S)-2-(2-ethoxy-5-ethylphenyl)-N-(2-methylquinoline-5-sulfonyl)oxolane-2-carboxamide] | 129 % Dual | > 300 nM | 2700 nM | 3930 nM | 303% | 711%
3 | COc1ccc(C)cc1[C@]1(C(=O)NS(=O)(=O)c2cccc3nc(C)ccc23)CC[C@H](c2ccccc2)O1 [Example 11, (2S,5R)-2-(2-methoxy-5-methylphenyl)-N-(2-methylquinoline-5-sulfonyl)-5-phenyloxolane-2-carboxamide] | 158 % Dual | 17.1 nM | 1190 nM | 1110 nM | 542% | 
4 | COc1ccc(C)cc1[C@@]1(C(=O)NS(=O)(=O)c2cccc3nc(C)ccc23)CC[C@H](c2ccccc2)O1 [Example 12, (2R,5R)-2-(2-methoxy-5-methylphenyl)-N-(2-methylquinoline-5-sulfonyl)-5-phenyloxolane-2-carboxamide] | 315 % Dual | 68 nM | 680 nM | 700 nM | 735% | 
5 | CCc1ccc(OC[C@H](C)OC)c([C@]2(C(=O)NS(=O)(=O)c3cccc4nc(C)ccc34)CCCO2)c1 [Example 13, (2S)-2-{5-ethyl-2-[(2S)-2-methoxypropoxy]phenyl}-N-(2-methylquinoline-5-sulfonyl)oxolane-2-carboxamide] | 119 % Dual | > 300 nM | 4990 nM | 6490 nM | 122% | 399%
6 | COc1ccc(C)cc1[C@@]1(C(=O)NS(=O)(=O)c2cccc3nc(C)ccc23)CC2(CC2)CO1 [Example 15, (6R)-6-(2-methoxy-5-methylphenyl)-N-(2-methylquinoline-5-sulfonyl)-5-oxaspiro[2.4]heptane-6-carboxamide] | 178 % Dual | 123 nM | 1010 nM | 1510 nM | 307% | 708%
7 | COc1ccc(C)cc1[C@]1(C(=O)NS(=O)(=O)c2cccc3nc(C)ccc23)CC2(CC2)CO1 [Example 16, (6S)-6-(2-methoxy-5-methylphenyl)-N-(2-methylquinoline-5-sulfonyl)-5-oxaspiro[2.4]heptane-6-carboxamide] | 110 % Dual | > 300 nM | 2550 nM | 4800 nM | 147% | 444%
8 | CCc1ccc(Oc2ccccc2)c(C2(C(=O)NS(=O)(=O)c3cccc4nc(C)ccc34)CCCO2)c1 (stereo not shown) [Example 17, 2-(5-ethyl-2-phenoxyphenyl)-N-(2-methylquinoline-5-sulfonyl)oxolane-2-carboxamide] | 229 % Dual | 11.5 nM | 1560 nM | 2660 nM | 931% | 
9 | COc1ccc(C)cc1[C@@]1(C(=O)NS(=O)(=O)c2cccc3nc(C)ccc23)C[C@@H](C)CO1 [Example 19, (2R,4R)-2-(2-methoxy-5-methylphenyl)-4-methyl-N-(2-methylquinoline-5-sulfonyl)oxolane-2-carboxamide] | 253 % Dual | 33 nM | 720 nM | 880 nM | 339% | 850%
10 | COc1ccc(C)cc1[C@@]1(C(=O)NS(=O)(=O)c2cccc3nc(C)ccc23)C[C@H](C)CO1 [Example 20, (2R,4S)-2-(2-methoxy-5-methylphenyl)-4-methyl-N-(2-methylquinoline-5-sulfonyl)oxolane-2-carboxamide] | 201 % Dual | 35.1 nM | 680 nM | 1230 nM | 366% | 862%
11 | CCc1ccc(Oc2cccnc2OC(F)F)c(C2(C(=O)NS(=O)(=O)c3cccc4nc(C)ccc34)CCCO2)c1 (stereo not shown) [Example 21, 2-(2-{[2-(difluoromethoxy)pyridin-3-yl]oxy}-5-ethylphenyl)-N-(2-methylquinoline-5-sulfonyl)oxolane-2-carboxamide] | 199 % Dual | 11.8 nM | 1290 nM | 1540 nM | 857% | 
